Experimental data as given in US20230382904A1, “SUBSTITUTED 4-([1,2,4]TRIAZOLO[1,5-a]PYRIDIN-6-YL)THIOPHENE-2-CARBOXAMIDE DERIVATIVES AND USE THEREOF” (The Johns Hopkins University, priority 2020, published 2023).

Key:
DLK = DLK (Homo sapiens (Human), UniProt Q12852); assay: DLK biochemical assay (TR-FRET, MKK7 phosphorylation)
Method: DLK assay is a biochemical assay format designed to screen for inhibitors of DLK. Enzymatic activity of DLK was measured by monitoring phosphorylation of the physiological substrate MKK7 (MAP2K7, Dual specificity mitogen-activated protein kinase kinase 7). Phosphorylation was detected by a TR-FRET system whereby His-tagged MKK7 was labeled by a XL665-labeled anti-His antibody (FRET acceptor, emission 665 nm). DLK phosphorylates MKK7 at T275/S277, which was detected by an Eu-labeled anti-phospho-MKK7 (T275/S277) antibody (F RET donor, excitation 340 nm). Phosphorylation of MKK7 results in an increased TR-FRET signal (Ratio XL665-channel/Eu-channel) and inhibition of enzymatic activity of DLK decreases the TR-FRET signal.
Assay Protocol for 1536 MTP format: test compounds were predispensed (60 nl) in test plates; +3 μl DLK solution (10 nM DLK, catalytic domain, Carna Biosiences, 0.6 mM DTT in assay buffer); +2 μl substrate solution (15 nM MKK7, LDB; 60 μM ATP; 0.4 mM DTT in assay buffer); 90 min incubation at RT; +2 μl detection mix (5 nM XL665-labeled anti-His antibody, Cisbio; 0.1 nM Eu-labeled anti-phospho-MKK7 (T275/S277), Cisbio/Millipore in detection buffer); 16 h incubation at 37° C.; endpoint measurement BMG (HTRF).
Assay Protocol for 384 low volume MTP format: 1 μl of test compounds were pipetted into test plate; +5 μl DLK solution (10 nM DLK, catalytic domain, Carna Biosiences in assay buffer); +5 μl substrate solution (15 nM MKK7, LDB; 60 μM ATP, in assay buffer); 90 min incubation at RT; +9 μl detection mix (20 nM XL665-labeled anti-His antibody, Cisbio; 0.4 nM Eu-labeled anti-phospho-MKK7 (T275/S277), Cisbio/Millipore in detection buffer); 16 h incubation at 4° C.; endpoint measurement BMG (HTRF).
(§1) All indicated concentrations final concentrations.
Assay buffer (384 format): 50 mM Hepes pH 7.5, 10 mM MgCl2, 1 mM EGTA, 1 mM DTT, 0,01% Triton X-100, 0.01% BSA, 1:500 Smart Block.
(§2) Detection buffer: 25 mM Tris/HCl pH 7.5, 100 mM EDTA, 100 mM NaCl, 200 mM KF, 0.01% Tween 20, 1:500 Smart Block.

LZK = LZK (Homo sapiens (Human), UniProt O43283); assay: LZK biochemical assay (TR-FRET, MKK7 phosphorylation)
Sequence of LZK (O43283 168-409): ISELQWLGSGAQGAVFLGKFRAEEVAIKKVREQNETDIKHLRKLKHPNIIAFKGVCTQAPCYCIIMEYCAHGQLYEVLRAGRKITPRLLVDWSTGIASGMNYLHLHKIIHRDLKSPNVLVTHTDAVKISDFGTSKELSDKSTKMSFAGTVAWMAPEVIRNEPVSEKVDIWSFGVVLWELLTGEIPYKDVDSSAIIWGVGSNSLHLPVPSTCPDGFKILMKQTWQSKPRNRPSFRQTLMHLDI
Method: LZK assay is a biochemical assay format designed to screen for inhibitors of LZK. Enzymatic activity of LZK was measured by monitoring phosphorylation of the physiological substrate MKK7 (MAP2K7, Dual specificity mitogen-activated protein kinase kinase 7). Phosphorylation was detected by a TR-FRET system whereby His-tagged MKK7 was labeled by a XL665-labeled anti-His antibody (FRET acceptor, emission 665 nm). LZK phosphorylates MKK7 at T275/S277 which were detected by an Eu-labeled anti-phospho-MKK7 (T275/S277) antibody (FRET donor, excitation 340 nm). Phosphorylation of MKK7 results in an increased TR-FRET signal (Ratio XL665-channel/Eu-channel) and inhibition of enzymatic activity of LZK decreases the TR-FRET signal.
Assay Protocol for 384 low volume MTP format: 1 μl of test compound was pipetted into test plate; +5 μl LZK solution (10 nM LZK, catalytic domain, Carna Biosiences in assay buffer); +5 μl substrate solution (15 nM MKK7, LDB; 15 μM ATP, in assay buffer); 90 min incubation at RT; +5 μl detection mix (20 nM XL665-labeled anti-His antibody, Cisbio; 0.4 nM Eu-labeled anti-phospho-MKK7 (T275/S277), Cisbio/Millipore in detection buffer), 16 h incubation at 32° C.; endpoint measurement BMG (HTRF).
as §1
Assay buffer (384 format): 50 mM Hepes pH 7.5, 10 mM MgCl2, 1 mM EGTA, 1 mM DTT, 0.01% Triton X-100, 0.01% BSA, 1:500 Smart Block.
as §2

Sequence of DLK (Q12852 1-520): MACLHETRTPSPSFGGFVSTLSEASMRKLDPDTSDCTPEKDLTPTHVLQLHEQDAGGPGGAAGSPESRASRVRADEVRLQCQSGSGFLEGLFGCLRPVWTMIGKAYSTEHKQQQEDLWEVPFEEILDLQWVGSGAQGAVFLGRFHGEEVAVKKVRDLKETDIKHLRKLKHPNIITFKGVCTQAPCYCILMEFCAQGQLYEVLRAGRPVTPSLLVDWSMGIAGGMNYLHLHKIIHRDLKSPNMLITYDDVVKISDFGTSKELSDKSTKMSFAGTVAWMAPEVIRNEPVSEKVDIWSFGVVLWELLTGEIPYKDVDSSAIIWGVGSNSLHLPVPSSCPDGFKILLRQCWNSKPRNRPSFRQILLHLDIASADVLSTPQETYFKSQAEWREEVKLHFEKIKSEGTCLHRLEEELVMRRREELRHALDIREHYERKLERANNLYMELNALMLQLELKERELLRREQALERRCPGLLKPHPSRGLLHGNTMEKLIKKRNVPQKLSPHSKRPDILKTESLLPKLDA

Row | Compound | IC50 (DLK) [µM] | IC50 (LZK) [µM]
1 | COc1cccc(C2(NC(=O)c3cc(-c4ccc5nc(N)nn5c4)cs3)CC2)c1 [Compound 291] | 0.71 | 14
2 | CCn1cc(CNC(=O)c2cc(-c3ccc4nc(N)nn4c3)cs2)cn1 [Compound 218] | 8.7 | –
3 | Nc1nc2ccc(-c3csc(C(=O)NCCc4ccccc4)c3)cn2n1 [Compound 211] | 0.97 | 18
4 | Nc1nc2ccc(-c3csc(C(=O)NCc4cccc(OC5CC5)c4)c3)cn2n1 [Compound 205] | 0.23 | 12
5 | COC[C@H](NC(=O)c1cc(-c2ccc3nc(N)nn3c2)cs1)c1ccccc1 [Compound 322] | 0.12 | 1.4
6 | C[C@H]1CCC[C@@H](NC(=O)c2cc(-c3ccc4nc(N)nn4c3)cs2)C1 (single isomer, unassigned) [Compound 165] | 0.88 | > 30
7 | C[C@H](NC(=O)c1cc(-c2ccc3nc(N)nn3c2)cs1)c1ccc(OC(F)(F)F)cc1 [Compound 356] | 0.31 | > 30
8 | COc1cccc(CNC(=O)c2cc(-c3ccc4nc(N)nn4c3)c(C)s2)c1 [Compound 311] | 19 | > 30
9 | Nc1nc2ccc(-c3csc(C(=O)NCc4cnc(Cl)s4)c3)cn2n1 [Compound 250] | 0.935 | 4.5
10 | CCN1CCC[C@@H](NC(=O)c2cc(-c3ccc4nc(N)nn4c3)cs2)C1 [Compound 287] | 5.7 | > 30
11 | COc1cccc(CNC(=O)c2cc(-c3ccc4nc(NCCN5CCOCC5)nn4c3)cs2)c1 [Compound 262] | > 30 | –
12 | Nc1nc2ccc(-c3csc(C(=O)NCC4CCCO4)c3)cn2n1 (stereo not shown) [Compound 189] | 4.7 | –
13 | Nc1nc2ccc(-c3csc(C(=O)NCC4CCCCO4)c3)cn2n1 (stereo not shown) [Compound 208] | 3 | –
14 | COC(C)CN(C)C(=O)c1cc(-c2ccc3nc(N)nn3c2)cs1 (stereo not shown) [Compound 164] | 28 | –
15 | CC1CCCN(C(=O)c2cc(-c3ccc4nc(N)nn4c3)cs2)C1 (stereo not shown) [Compound 167] | 10 | –
16 | CN1CCC(CNC(=O)c2cc(-c3ccc4nc(N)nn4c3)cs2)CC1 [Compound 229] | 7.6 | –
17 | CCCNc1nc2ccc(-c3csc(C(=O)NCc4cccc(OC)c4)c3)cn2n1 [Compound 253] | > 30 | –
18 | CC[C@H]1CC[C@H](NC(=O)c2cc(-c3ccc4nc(N)nn4c3)cs2)CC1 [Compound 178] | 3.5 | –
19 | Nc1nc2ccc(-c3csc(C(=O)Nc4ccccc4)c3)cn2n1 [Compound 259] | 2.9 | –
20 | COc1cccc(CNC(=O)c2cc(-c3cc(C(=O)NC(C)C)c4ncnn4c3)cs2)c1 [Compound 390] | 11 | –
21 | COc1cc(OC)nc(CNC(=O)c2cc(-c3ccc4nc(N)nn4c3)cs2)n1 [Compound 258] | 7 | –
22 | CC(C)(C)OC(=O)N1CCCC(NC(=O)c2cc(-c3ccc4nc(N)nn4c3)cs2)C1 (stereo not shown) [Compound 179] | 3.4 | –
23 | COc1ccc2c(c1)CN(C(=O)c1cc(-c3ccc4nc(N)nn4c3)cs1)C2 [Compound 237] | 12 | –
24 | Nc1nc2ccc(-c3csc(C(=O)N4CC5(COC5)C4)c3)cn2n1 [Compound 163] | 12 | –
25 | Nc1nc2ccc(-c3csc(C(=O)NCC4CCOC4)c3)cn2n1 (stereo not shown) [Compound 210] | 2.7 | –
26 | CCN(CC)CCNc1nc2ccc(-c3csc(C(=O)NCc4cccc(OC)c4)c3)cn2n1 [Compound 266] | > 30 | –
27 | Cn1cncc1CNC(=O)c1cc(-c2ccc3nc(N)nn3c2)cs1 [Compound 252] | 3.9 | –
28 | Nc1nc2ccc(-c3csc(C(=O)NC4CCOC4)c3)cn2n1 (stereo not shown) [Compound 186] | 7.6 | –
29 | NC(=O)c1cc(-c2ccc3nc(N)nn3c2)cs1 [Compound 183] | 4.3 | –
30 | CC(C)NC(=O)c1cc(-c2csc(C(=O)N[C@@H](C)c3ccc(F)cc3)c2)cn2ncnc12 [Compound 391] | 2 | –

The next lines start with the values.

Row | IC50 (DLK) [µM] | IC50 (LZK) [µM] | Compound
31 | 0.71 | 11 | Nc1nc2cc(F)c(-c3csc(C(=O)NCc4ccccc4)c3)cn2n1 [Compound 297]
32 | 0.0024 | 0.077 | C[C@H](NC(=O)c1cc(-c2cc(C(=O)NC3CNC(=O)C3)c3nc(N)nn3c2)cs1)c1ccc(F)cc1 (single isomer, unassigned) [Compound 48]
33 | 1.39 | 5.7 | Nc1nc2ccc(-c3csc(C(=O)NCc4cc(F)cc(F)c4)c3)cn2n1 [Compound 222]
34 | 0.12 | 2.3 | Nc1nc2c(C(=O)NC3CC3)cc(-c3csc(C(=O)NCc4ccccc4)c3)cn2n1 [Compound 56]
35 | 0.22 | 4.3 | Cc1cccc2oc(CNC(=O)c3cc(-c4ccc5nc(N)nn5c4)cs3)nc12 [Compound 304]
36 | 0.031 | 0.15 | C[C@H](NC(=O)c1cc(-c2cc(C(=O)NC(C)(C)C)c3nc(N)nn3c2)cs1)c1ccc(F)cc1 [Compound 17]
37 | 0.13 | 3.6 | C[C@H](NC(=O)c1cc(-c2cc(C(=O)NC3CNC(=O)C3)c3nc(N)nn3c2)cs1)c1ccc(F)cc1 (single isomer, unassigned) [Compound 47]
38 | 0.032 | 0.12 | CC(C)NC(=O)c1cc(-c2csc(C(=O)NCc3nc4ccccc4o3)c2)cn2nc(N)nc12 [Compound 35]
39 | 0.12 | 4.6 | C[C@H](NC(=O)c1cc(-c2cc(C(=O)NCC(F)(F)F)c3nc(N)nn3c2)cs1)c1ccc(F)cc1 [Compound 63]
40 | 0.58 | 14 | Nc1nc2ccc(-c3csc(C(=O)NCc4ccsc4)c3)cn2n1 [Compound 273]
41 | 8.6 | – | Cc1nc(CNC(=O)c2cc(-c3ccc4nc(N)nn4c3)cs2)cs1 [Compound 217]
42 | 0.014 | – | CC(C)NC(=O)c1cc(-c2csc(C(=O)N[C@H](C)c3ccc(F)cc3)c2)cn2nc(N)nc12 [Compound 96]
43 | 0.018 | – | Nc1nc2c(C(=O)N[C@H]3CCOC3)cc(-c3csc(C(=O)NCc4ccc(F)cc4)c3)cn2n1 [Compound 101]
44 | 0.16 | – | C[C@H](NC(=O)c1cc(-c2cc(C(=O)NC3COC3)c3nc(N)nn3c2)cs1)c1ccc(F)cc1 [Compound 73]
45 | 5.2 | – | CN(Cc1ccc(F)cc1)C(=O)c1cc(-c2ccc3nc(N)nn3c2)cs1 [Compound 166]
46 | 4.1 | – | Cn1cc(CNC(=O)c2cc(-c3ccc4nc(N)nn4c3)cs2)cn1 [Compound 244]
47 | 0.035 | – | CC(C)NC(=O)c1cc(-c2csc(C(=O)NCc3ccc(F)cc3)c2)cn2nc(N)nc12 [Compound 4, 2-Amino-6-(5-{[(4-fluorophenyl)methyl]carbamoyl}thiophen-3-yl)-N-(propan-2-yl)[1,2,4]triazolo[1,5-a]pyridine-8-carboxamide]
48 | 0.00645 | – | C[C@H](NC(=O)c1cc(-c2cc(C(=O)NC(C)(C)CO)c3nc(N)nn3c2)cs1)c1ccc(F)cc1 [Compound 78]
49 | 0.26 | – | CC(C)c1nnc(-c2cc(-c3csc(C(=O)NCc4ccc(F)cc4)c3)cn3nc(N)nc23)s1 [Compound 393]
50 | 0.00865 | – | CC(C)NC(=O)c1cc(-c2csc(C(=O)N[C@@H](C)c3ccc(F)cc3)c2)cn2nc(N)nc12 [Compound 19, 2-Amino-6-(5-{[(1S)-1-(4-fluorophenyl)ethyl]carbamoyl}thiophen-3-yl)-N-(propan-2-yl)[1,2,4]triazolo[1,5-a]pyridine-8-carboxamide]
51 | 0.034 | – | COc1cccc(CNC(=O)c2cc(-c3cc(C(=O)NC(C)C)c4nc(N)nn4c3)cs2)c1 [Compound 3]
